Experiment [1] concerns the target T1, human soluble TNFR1 (sTNFR1) (Homo sapiens, UniProt P19438).
T1 construct: made in house; host or cells: Sf21 (baculovirus)
T1 sequence (P19438 with tags, fused parts or gaps): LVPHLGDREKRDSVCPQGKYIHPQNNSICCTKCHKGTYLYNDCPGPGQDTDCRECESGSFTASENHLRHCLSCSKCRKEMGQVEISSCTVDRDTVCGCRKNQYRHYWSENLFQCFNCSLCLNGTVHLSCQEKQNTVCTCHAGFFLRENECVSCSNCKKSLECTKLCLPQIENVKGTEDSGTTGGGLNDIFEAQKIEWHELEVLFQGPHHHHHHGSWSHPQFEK
Nature of the experiment: Human sTNFR1-peptide displacement assay (LanthaScreen Eu TR-FRET binding assay). Put shortly:
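Readout is the 665/615 nm TR-FRET ratio (Eu anti-His donor, streptavidin-Alexa647 acceptor), normalized to DMSO and saturating displacer, fit by Morrison-based five-parameter logistic for Kd^app. His-tagged sTNFR1 (1-211) prebound to 100 nM biotinylated peptide SEQ ID NO.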

Experiment [2] addresses T2, human TNFR1 extracellular domain (ECD) protein (Homo sapiens, UniProt P19438).
T2 construct: HRV 3C protease cleavage site (C); 6His (C, cleaved yes); made in house; host or cells: Sf21 insect cells (baculovirus), secreted
T2 sequence (P19438 30-211): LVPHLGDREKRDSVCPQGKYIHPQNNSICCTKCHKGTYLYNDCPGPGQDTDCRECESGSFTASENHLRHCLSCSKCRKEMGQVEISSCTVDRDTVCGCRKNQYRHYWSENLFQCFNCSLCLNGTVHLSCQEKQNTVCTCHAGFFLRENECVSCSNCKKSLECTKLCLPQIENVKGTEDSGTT
The experiment is described as follows: SPR binding affinity to captured human TNFR1 ECD. The procedure, abridged:
(§1)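 Biotinylated avi-tagged human TNFR1 or TNFR2 ECD, expressed in Sf21 insect cells, captured on streptavidin SPR chip; peptide analytes run in 10 mM HEPES pH 7.4, 150 mM NaCl, 3 mM EDTA, 0.05% P20, 2% DMSO. kon and koff measured, affinity KA calculated.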
(In SPR one partner is held on a chip, and binding of the other changes the refractive index at the surface.)

The target of the next experiment is T3, human TNFR2 ECD protein (Homo sapiens, UniProt P20333).
T3 construct: HRV 3C protease cleavage site (C); 6His (C, cleaved yes); made in house; host or cells: Sf21 insect cells (baculovirus), secreted
T3 sequence (P20333 23-257): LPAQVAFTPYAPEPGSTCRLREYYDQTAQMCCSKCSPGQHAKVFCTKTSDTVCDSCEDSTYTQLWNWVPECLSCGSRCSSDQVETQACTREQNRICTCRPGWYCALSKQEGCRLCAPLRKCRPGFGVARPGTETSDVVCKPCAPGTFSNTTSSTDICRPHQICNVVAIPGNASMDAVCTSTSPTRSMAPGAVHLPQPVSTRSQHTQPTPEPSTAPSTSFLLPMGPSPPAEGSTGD
Nature of the experiment: SPR off-target binding (selectivity) to human TNFR2 ECD. The procedure, abridged:
as §1

For 5 molecules, IC50 and Kd results are on record in US20240287138A1, “CYCLIC PEPTIDES FOR INHIBITING TNF RECEPTOR 1 ACTIVITY” (Merck Sharp & Dohme LLC, priority 2023, published 2024).

Numbered stars: 1 amine (or outer) side, 2 acyl side, 3 side chain; on linkers, the order of the positions; unused ones are H or OH. Bridge positions count the residues as written; N and C are the ends. Square brackets hold non-standard residues; d marks the D form. Peptide text beside a SMILES is read from it. Trp(βS-Me,7-OMe) = COc1cccc2c([C@H](C)[C@H](N)C(=O)O)c[nH]c12; Trp(7-Cl) = N[C@@H](Cc1c[nH]c2c(Cl)cccc12)C(=O)O; Phe(4-CONH2) = NC(=O)c1ccc(C[C@H](N)C(=O)O)cc1; Phe(4-COOH) = N[C@@H](Cc1ccc(C(=O)O)cc1)C(=O)O; Trp(7-aza) = N[C@@H](Cc1c[nH]c2ncccc12)C(=O)O; dPro(4S-NH2) = N[C@@H]1CN[C@@H](C(=O)O)C1; Pip(5R-OH) = O=C(O)[C@@H]1CC[C@@H](O)CN1; X1 = O=C([C@@H]1CC[C@H](N[*:1])C1)[*:2]; X19 = O=C([C@H](Cc1ccncn1)N[*:1])[*:2]; Gly(N(CH2)3COOH) = O=C(O)CCCNCC(=O)O; Pip(4-aza) = O=C(O)[C@@H]1CNCCN1; 4Pal = N[C@@H](Cc1ccncc1)C(=O)O; NMeE = CN[C@@H](CCC(=O)O)C(=O)O; dHyp = O=C(O)[C@H]1C[C@H](O)CN1; X7 = CC[C@@H](C(=O)[*:1])[*:2]; Pip = O=C(O)[C@@H]1CCCCN1; αMeS = C[C@](N)(CO)C(=O)O; Nle = CCCC[C@H](N)C(=O)O; Sar = CNCC(=O)O

`CCCC[C@@H]1NC(=O)CSC[C@@H](C(N)=O)NC(=O)[C@H]([C@@H](C)c2c[nH]c3c(OC)cccc23)NC(=O)CN(C)C(=O)[C@H](Cc2ccc(O)cc2)NC(=O)[C@H](Cc2ccc(C(=O)O)cc2)NC(=O)[C@](C)(CO)NC(=O)[C@H](Cc2c[nH]c3c(Cl)cccc23)NC(=O)[C@H](Cc2ccncc2)NC(=O)[C@H](CC(N)=O)NC(=O)CN(CCCC(=O)O)C(=O)[C@H](Cc2c[nH]c3ncccc23)NC(=O)[C@@H]2CCCCN2C(=O)[C@H](Cc2ccncc2)NC1=O` [SEQ ID NO. 157] ({CH2CO}-[Nle][4Pal][Pip][Trp(7-aza)][Gly(N(CH2)3COOH)]N[4Pal][Trp(7-Cl)][αMeS][Phe(4-COOH)]Y[Sar][Trp(βS-Me,7-OMe)]C-NH2; thioether N-14): in experiment [1], the IC50 (in general, the concentration needed to halve the response being measured) was 0.72 nM. Also, the Kd (commonly the equilibrium constant for the complex coming apart) is 0.64 nM in experiment [1], 0.5 nM in experiment [2] and more than 1000 nM on human TNFR2 ECD protein.

Consider `CCCC[C@@H]1NC(=O)[C@@H]2CC[C@@H](C2)NC(=O)[C@H]([C@@H](C)c2c[nH]c3c(OC)cccc23)NC(=O)CN(C)C(=O)[C@H](Cc2ccc(C(=O)O)cc2)NC(=O)[C@H](Cc2ccc(C(N)=O)cc2)NC(=O)[C@](C)(CO)NC(=O)[C@H](Cc2c[nH]c3c(Cl)cccc23)NC(=O)[C@H](Cc2ccncn2)NC(=O)[C@H](CC(N)=O)NC(=O)[C@H]2C[C@H](O)CN2C(=O)[C@H](Cc2c[nH]c3ncccc23)NC(=O)[C@@H]2CC[C@@H](O)CN2C(=O)[C@H](Cc2ccncc2)NC1=O` [SEQ ID NO. 159] (cyclo([4Pal][Pip(5R-OH)][Trp(7-aza)][dHyp]N[X19][Trp(7-Cl)][αMeS][Phe(4-CONH2)][Phe(4-COOH)][Sar][Trp(βS-Me,7-OMe)][X1][Nle])), for which the Kd was 0.12 nM in experiment [1], 0.05 nM in experiment [2] and more than 1000 nM at human TNFR2 ECD protein.

Regarding `CCCC[C@@H]1NC(=O)[C@@H]2CC[C@@H](C2)NC(=O)[C@H]([C@@H](C)c2c[nH]c3c(OC)cccc23)NC(=O)CN(C)C(=O)[C@H](Cc2ccc(O)cc2)NC(=O)[C@H](Cc2ccc(C(=O)O)cc2)NC(=O)[C@](C)(CO)NC(=O)[C@H](Cc2c[nH]c3c(Cl)cccc23)NC(=O)[C@H](Cc2ccncc2)NC(=O)[C@H](CC(N)=O)NC(=O)[C@H]2C[C@H](N)CN2C(=O)[C@H](Cc2c[nH]c3ccccc23)NC(=O)[C@@H]2CNCCN2C(=O)[C@H](Cc2ccncc2)NC1=O` [SEQ ID NO. 161] (cyclo([4Pal][Trp(7-Cl)][αMeS][Phe(4-COOH)]Y[Sar][Trp(βS-Me,7-OMe)][X1][Nle][4Pal][Pip(4-aza)]W[dPro(4S-NH2)]N)), the figures for the Kd (in experiment [1]; in experiment [2]; on human TNFR2 ECD protein) were 0.09 nM, 0.02 nM and more than 1000 nM, respectively.

Consider `CCCC[C@@H]1NC(=O)[C@@H]2CC[C@@H](C2)NC(=O)[C@H]([C@@H](C)c2c[nH]c3c(OC)cccc23)NC(=O)CN(C)C(=O)[C@H](Cc2ccc(O)cc2)NC(=O)[C@H](Cc2ccc(C(N)=O)cc2)NC(=O)[C@](C)(CO)NC(=O)[C@H](Cc2c[nH]c3c(Cl)cccc23)NC(=O)[C@H](Cc2ccncc2)NC(=O)[C@H](CC(N)=O)NC(=O)[C@H](CCC(=O)O)N(C)C(=O)[C@H](Cc2c[nH]c3ccccc23)NC(=O)[C@@H]2CC[C@@H](O)CN2C(=O)[C@H](Cc2ccncc2)NC1=O` [SEQ ID NO. 163] (cyclo([4Pal][Trp(7-Cl)][αMeS][Phe(4-CONH2)]Y[Sar][Trp(βS-Me,7-OMe)][X1][Nle][4Pal][Pip(5R-OH)]W[NMeE]N)), for which the Kd in experiment [1] was 0.05 nM; in experiment [2], 0.05 nM; at human TNFR2 ECD protein, more than 1000 nM.

As for `CCCC[C@@H]1NC(=O)[C@H](CC)SC[C@@H](C(N)=O)NC(=O)[C@H]([C@@H](C)c2c[nH]c3c(OC)cccc23)NC(=O)CN(C)C(=O)[C@H](Cc2ccc(O)cc2)NC(=O)[C@H](Cc2ccc(C(N)=O)cc2)NC(=O)[C@](C)(CO)NC(=O)[C@H](Cc2c[nH]c3c(Cl)cccc23)NC(=O)[C@H](Cc2ccc(C(=O)O)cc2)NC(=O)[C@H](CC(N)=O)NC(=O)[C@H](CCC(=O)O)N(C)C(=O)[C@H](Cc2c[nH]c3ncccc23)NC(=O)[C@@H]2CC[C@@H](O)CN2C(=O)[C@H](Cc2ccncc2)NC1=O` [SEQ ID NO. 168] ([Nle][4Pal][Pip(5R-OH)][Trp(7-aza)][NMeE]N[Phe(4-COOH)][Trp(7-Cl)][αMeS][Phe(4-CONH2)]Y[Sar][Trp(βS-Me,7-OMe)]C-NH2; linker N-14 via X7), the IC50 in experiment [1] is 0.3 nM. Moreover, the values for the Kd (in experiment [2]; on human TNFR2 ECD protein) were 0.37 nM and more than 1000 nM, respectively.
